Reference: paper PMC8074465, “Synthesis of oxadiazole-2-oxide derivatives as potential drug candidates for schistosomiasis targeting SjTGR” (Parasites & Vectors, 2021)
Values joined by “and” are separate entries in the source; they are usually repeats but may differ in a detail not shown here. Identical values can stand only once. Like-named read-outs stand apart in the source and are kept apart here.

Target: T1, rSjTGR-Sec (Schistosoma japonicum, UniProt B5THG7)
T1 sequence (B5THG7 1-596): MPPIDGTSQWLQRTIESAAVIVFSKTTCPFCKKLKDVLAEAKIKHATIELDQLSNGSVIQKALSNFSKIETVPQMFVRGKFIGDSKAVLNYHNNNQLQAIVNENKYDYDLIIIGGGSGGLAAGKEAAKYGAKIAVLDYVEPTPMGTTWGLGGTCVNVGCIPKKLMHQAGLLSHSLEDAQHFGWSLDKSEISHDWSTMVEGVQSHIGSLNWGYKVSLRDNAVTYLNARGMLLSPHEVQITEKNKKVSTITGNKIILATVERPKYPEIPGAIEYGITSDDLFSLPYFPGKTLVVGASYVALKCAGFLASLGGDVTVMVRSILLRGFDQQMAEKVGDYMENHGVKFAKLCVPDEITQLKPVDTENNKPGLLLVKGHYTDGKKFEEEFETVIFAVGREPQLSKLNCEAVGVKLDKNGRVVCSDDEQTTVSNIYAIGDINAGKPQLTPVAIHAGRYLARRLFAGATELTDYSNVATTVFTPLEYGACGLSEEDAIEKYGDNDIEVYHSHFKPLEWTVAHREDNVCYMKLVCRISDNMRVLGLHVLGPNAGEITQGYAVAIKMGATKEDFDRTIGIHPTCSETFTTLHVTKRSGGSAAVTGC
Experiment: Inhibition of TrxR activity of rSjTGR-Sec (DTNB reduction, absorbance 412 nm)
Type: biochemical
Conditions: for inhibitory effect on rSjTGR-Sec (in words): furoxan as positive control
Experimental: The rSjTGR-Sec was expressed and harvested as described previously. […] The rSjTGR-Sec was purified by His Mag™ Agarose beads according to manufacturer’s instructions. The concentration of purified rSjTGR-Sec was determined using a Bradford assay kit (Sangon, China), and the protein was identified by sodium dodecyl sulfate polyacrylamide gel electrophoresis (SDS-PAGE) and stored at 4 °C [20].
The novel furoxan derivatives in this work were dissolved in DMSO with a storage solution concentration of 64 millimoles per liter. The analysis of TrxR activity of SWAP containing wtSjTGR and rSjTGR-Sec was performed based on methods described previously. Analysis of the inhibitory activity of the compounds against the TrxR activity of SWAP containing wtSjTGR and rSjTGR-Sec described in this paper was also based on a previously described method. The reaction was performed in 0.1 M potassium phosphate buffer (pH 7.0) containing 10 mM EDTA, 100 µM nicotinamide adenine dinucleotide phosphate (NADPH), 0.2 µg supernatant of SWAP containing wtSjTGR or 0.6 µg rSjTGR-Sec, and the studied compounds with different concentrations at 25 °C in a final volume of 200 μL, and was initiated by adding 3 mM DTNB. […] All assays were done in triplicate.

[1] = DTNB, pH 7.0, 25 °C, triplicate, >50 μM = flat response within range tested, read-out: IC50 of rSjTGR-Sec
[2] = IC50 of rSjTGR-Sec, DTNB, pH 7.0, 25 °C, triplicate, >50 μM = flat response within range tested

Compound | IC50 [1] | other results
O=C(OCc1c(-c2ccc(C(F)(F)F)nc2)no[n+]1[O-])c1ccccc1 [7df, 3-((benzoyloxy)methyl)-4-(6-(trifluoromethyl)pyridin-3-yl)-1,2,5-oxadiazole 2-oxide] | > 50 µM | –
O=C(OCc1c(-c2cccnc2)no[n+]1[O-])c1cc(C(F)(F)F)cc(C(F)(F)F)c1 [7bi, 3-(((3,5-bis(trifluoromethyl)benzoyl)oxy)methyl)-4-(pyridin-3-yl)-1,2,5-oxadiazole 2-oxide] | > 50 µM | –
O=C(OCc1c(-c2ccncc2)no[n+]1[O-])c1ccccc1 [7af, 3-((benzoyloxy)methyl)-4-(pyridin-4-yl)-1,2,5-oxadiazole 2-oxide] | 3.23 ± 0.05 µM | –
N#Cc1c(-c2ccccc2)no[n+]1[O-] [Furoxan, reference compound] | – | IC50 [2]: 5.87 ± 1.37 µM
O=C(OCc1c(-c2cccnc2)no[n+]1[O-])c1c(F)c(F)c(F)c(F)c1F [7bh, 3-(((perfluorobenzoyl)oxy)methyl)-4-(pyridine-3-yl)-1,2,5-oxadiazole 2-oxide] | > 50 µM | –
CCCC(=O)OCc1c(-c2ccncc2)no[n+]1[O-] [7ac, 3-((butyryloxy)methyl)-4-(pyridin-4-yl)-1,2,5-oxadiazole 2-oxide] | > 50 µM | –
O=C(OCc1c(-c2ccncc2)no[n+]1[O-])c1ccc(F)cc1 [7ag, 3-(((4-fluorobenzoyl)oxy)methyl)-4-(pyridin-4-yl)-1,2,5-oxadiazole 2-oxide] | > 50 µM | –
CCCC(=O)OCc1c(-c2cccnc2)no[n+]1[O-] [7bc, 3-((butyryloxy)methyl)-4-(pyridin-3-yl)-1,2,5-oxadiazole 2-oxide] | > 50 µM | –
O=C(OCc1c(-c2ccncc2)no[n+]1[O-])c1cc(C(F)(F)F)cc(C(F)(F)F)c1 [7ai, 3-(((3,5-bis(trifluoromethyl)benzoyl)oxy)methyl)-4-(pyridin-4-yl)-1,2,5-oxadiazole 2-oxide] | > 50 µM | –
[O-][n+]1onc(-c2cccnc2)c1CNc1ccc(OC(F)(F)F)cc1 [9bb, 4-(pyridin-3-yl)-3-(((4-(trifluoromethoxy)phenyl)amino)methyl)-1,2,5-oxadiazole 2-oxide] | > 50 µM | –
COc1ccc(-c2no[n+]([O-])c2CO)cn1 [6c, 3-(hydroxymethyl)-4-(6-methoxypyridin-3-yl)-1,2,5-oxadi-azole 2-oxide] | 2.4 µM and 2.38 µM | –
[O-][n+]1onc(-c2cccnc2)c1CN1CCN(c2ccc(F)cc2)CC1 [9bc, 3-((4-(4-fluorophenyl)piperazin-1-yl)methyl)-4-(pyridin-3-yl)-1,2,5-oxadiazole 2-oxide] | > 50 µM | –
[O-][n+]1onc(-c2ccncc2)c1CO [6a, 3-(hydroxymethyl)-4-(pyridin-4-yl)-1,2,5-oxadiazole 2-oxide] | 0.036 ± 0.002 µM | IC50 (read-out: IC50 of rSjTGR-Sec): 0.036 µM
[O-][n+]1onc(-c2cccnc2)c1CNc1ccccc1 [9ba, 3-((phenylamino)methyl)-4-(pyridin-3-yl)-1,2,5-oxadiazole 2-oxide] | > 50 µM | –
[O-][n+]1onc(-c2ccncc2)c1CNc1ccc(OC(F)(F)F)cc1 [9ab, 4-(pyridin-4-yl)-3-(((4-(trifluoromethoxy)phenyl)amino)methyl)-1,2,5-oxadiazole 2-oxide] | 1.52 ± 0.2 µM | –
CCC(=O)OCc1c(-c2cccnc2)no[n+]1[O-] [7bb, 3-((propionyloxy)methyl)-4-(pyridin-3-yl)-1,2,5-oxadiazole 2-oxide] | > 50 µM | –
CCC(=O)OCc1c(-c2ccncc2)no[n+]1[O-] [7ab, 3-((propionyloxy)methyl)-4-(pyridin-4-yl)-1,2,5-oxadiazole 2-oxide] | > 50 µM | –
COc1ccc(-c2no[n+]([O-])c2COC(=O)c2ccccc2)cn1 [7cf, 3-((benzoyloxy)methyl)-4-(6-methoxypyridin-3-yl)-1,2,5-oxadiazole 2-oxide] | > 50 µM | inhibitory effect on rSjTGR-Sec (in words): did not show an inhibitory effect
[O-][n+]1onc(-c2cccnc2)c1CO [6b, 3-(hydroxymethyl)-4-(pyridin-3-yl)-1,2,5-oxadiazole 2-oxide] | 0.39 ± 0.02 µM | –
COc1ccc(-c2no[n+]([O-])c2CNc2ccccc2)cn1 [9ca, 4-(6-methoxypyridin-3-yl)-3-((phenylamino)methyl)-1,2,5-oxadiazole 2-oxide] | > 50 µM | –

Compound | IC50 [1] | other results
C=CC(=O)OCc1c(-c2cccnc2)no[n+]1[O-] [7bj, 3-((acryloyloxy)methyl)-4-(pyridin-3-yl)-1,2,5-oxadiazole 2-oxide] | > 50 µM | –
O=C(CCl)OCc1c(-c2cccnc2)no[n+]1[O-] [7be, 3-((2-chloroacetoxy)methyl)-4-(pyridin-3-yl)-1,2,5-oxadiazole 2-oxide] | 14.8 ± 3.67 µM | –
O=C(OCc1c(-c2cccnc2)no[n+]1[O-])c1ccccc1 [7bf, 3-((benzoyloxy)methyl)-4-(pyridin-3-yl)-1,2,5-oxadiazole 2-oxide] | > 50 µM | –
Cc1ccc(S(=O)(=O)N(Cc2c(-c3cccnc3)no[n+]2[O-])O[Si](C)(C)C(C)(C)C)cc1 [9be, 3-(((N-((tert-butyldimethylsilyl)oxy)-4-methylphenyl)sulfonamido)methyl)-4-(pyridin-3-yl)-1,2,5-oxadiazole 2-oxide] | – | IC50 [2]: 0.22 ± 0.01 µM
CC(C)(C)C(=O)OCc1c(-c2ccncc2)no[n+]1[O-] [7ad, 3-((pivaloyloxy)methyl)-4-(pyridin-4-yl)-1,2,5-oxadiazole 2-oxide] | > 50 µM | –
CC(C)(C)C(=O)OCc1c(-c2cccnc2)no[n+]1[O-] [7bd, 3-((pivaloyloxy)methyl)-4-(pyridin-3-yl)-1,2,5-oxadiazole 2-oxide] | > 50 µM | –
CC(=O)OCc1c(-c2ccncc2)no[n+]1[O-] [7aa, 3-(acetoxymethyl)-4-(pyridin-4-yl)-1,2,5-oxadiazole 2-oxide] | > 50 µM | –
CC(=O)OCc1c(-c2ccc(C(F)(F)F)nc2)no[n+]1[O-] [7da, 3-(acetoxymethyl)-4-(6-(trifluoromethyl)pyridin-3-yl)-1,2,5-oxadiazole 2-oxide] | > 50 µM | –
O=C(CCl)OCc1c(-c2ccncc2)no[n+]1[O-] [7ae, 3-((2-chloroacetoxy)methyl)-4-(pyridin-4-yl)-1,2,5-oxadiazole 2-oxide] | > 50 µM | inhibitory effect on rSjTGR-Sec (in words): did not show an effective inhibitory effect
O=C(OCc1c(-c2cccnc2)no[n+]1[O-])c1cccs1 [7bk, 4-(pyridin-3-yl)-3-(((thiophene-2-carbonyl)oxy)methyl) -1,2,5-oxadiazole 2-oxide] | > 50 µM | –
CC(=O)OCc1c(-c2cccnc2)no[n+]1[O-] [7ba, 3-(acetoxymethyl)-4-(pyridin-3-yl)-1,2,5-oxadiazole 2-oxide] | > 50 µM | –
[O-][n+]1onc(-c2ccc(C(F)(F)F)nc2)c1CO [6d, 3-(hydroxymethyl)-4-(6-(trifluoromethyl)pyridine-3-yl)-1,2,5-oxadiazole 2-oxide] | 0.0558 ± 0.00318 µM | IC50 (read-out: IC50 of rSjTGR-Sec): 0.0075 µM and 0.0558 µM
[O-][n+]1onc(-c2ccc(C(F)(F)F)nc2)c1CNc1ccccc1 [9da, 3-((phenylamino)methyl)-4-(6-(trifluoromethyl)pyridin-3-yl)-1,2,5-oxadiazole 2-oxide] | 3.73 ± 1.67 µM | –
O=C(OCc1c(-c2cccnc2)no[n+]1[O-])c1ccc(F)cc1 [7bg, 3-(((4-fluorobenzoyl)oxy)methyl)-4-(pyridine-3-yl)-1,2,5-oxadiazole 2-oxide] | > 50 µM | –
[O-][n+]1onc(-c2ccncc2)c1CN1CCN(c2cccc(C(F)(F)F)c2)CC1 [9ad, 4-(pyridin-4-yl)-3-((4-(3-(trifluoromethyl)phenyl)piperazin-1-yl)methyl)-1,2,5-oxadiazole 2-oxide] | > 50 µM | –
COc1ccc(-c2no[n+]([O-])c2COC(C)=O)cn1 [7ca, 3-(acetoxymethyl)-4-(6-methoxypyridin-3-yl)-1,2,5-oxadiazole 2-oxide] | > 50 µM | –
O=C(OCc1c(-c2ccncc2)no[n+]1[O-])c1c(F)c(F)c(F)c(F)c1F [7ah, 3-(((perfluorobenzoyl)oxy)methyl)-4-(pyridin-4-yl)-1,2,5-oxadiazole 2-oxide] | > 50 µM | –
[O-][n+]1onc(-c2ccncc2)c1CNc1ccccc1 [9aa, 3-((phenylamino)methyl)-4-(pyridin-4-yl)-1,2,5-oxad-iazole 2-oxide] | > 50 µM | –
[O-][n+]1onc(-c2ccncc2)c1CN1CCN(c2ccc(F)cc2)CC1 [9ac, 3-((4-(4-fluorophenyl)piperazin-1-yl)methyl)-4-(pyridin-4-yl)-1,2,5-oxadiazole 2-oxide] | > 50 µM | –
